Drawing on PubChem BioAssay AID1963828 (Molecular Pharmacology Branch, DTP, NCI, 2024), this text covers IC50 and viability, T/C for 4 compounds.

Each structure is given as a SMILES string. “And” between values parts separate entries of the source, which are not always exact repeats. Equal entries are not always repeated.

The assay has as its system 991263-137-R1-J2-PDC complex spheroid viability. In words: Anticancer human tumor 991263-137-R1-J2-PDC patient-derived colon adenocarcinoma cell line growth inhibition [POLQ]. As to conditions: for viability, T/C: stronger effect = lower value. Here is the method:
Multicellular complex tumor spheroid response to Polymerase (POL) inhibitors (novobiocin, ART-558, RP6685) in combination with a variety of drugs and investigational agents in selected tumor cell lines
The POL inhibitors (novobiocin, ART-558, and RP6685) were evaluated both individually and in combination with standard of care and investigational anticancer small molecules within a complex spheroid model of solid tumors. . Complex spheroids include a stromal component modeled by human endothelial cells (HUVEC) and fibroblasts modeled by human mesenchymal stem cells (MSCs). The concentration ranges selected for each drug and investigational agent were based upon clinically achievable concentrations if the clinical Cmax of the agent was known.
Compounds. The drugs and investigational agents: novobiocin (NSC847541), ART-558 (NSC835418), RP-6685 (NSC848927), peposertib (NSC802822), ceralasertib (NSC780249), elimusertib (NSC800525), camonsertib (NSC841442), AZD-1390 (NSC803789), olaparib (NSC753686), talazoparib (NSC767125), rucaparib (NSC756644), sotorasib (NSC818433), MRTX-1133 (NSC836407), SN-38 (NSC673596), topotecan (NSC609699), epotoside (NSC141540), doxorubicin (NSC123127), gemcitabine (NSC613327), 5-fluorouracil (NSC19893), paclitaxel (NSC125973), vemurafenib (NSC761431), MSA-2 (NSC828583), SN-011 (NSC837082), adavosertib (NSC754352), prexasertib (NSC758257), carboplatin (NSC241240) and oxaliplatin (NSC266046), were obtained from the National Cancer Institute (NCI) Developmental Therapeutics Program Chemical Repository (21). The FDA-approved anticancer drug set is available from the Developmental Therapeutics Program at https://dtp.cancer.gov/organization/dscb/obtaining/. […] The stock solutions were prepared in dimethyl sulfoxide (DMSO, Sigma-Aldrich, St. Louis, MO, cat. D2650), except for the platinum compounds which were prepared in saline (Quality Biological, Gaithersburg, MD, cat. 114-055-101), at 800-fold the tested concentration and stored at -70 degrees C prior to their use. All drugs and investigational agents were tested over a range starting from a high concentration at or near the clinical Cmax and decreasing in half-log increments. If the clinical Cmax for an agent had not been determined, the highest concentration tested was 10 microM, except for SN-38, which was tested at a high concentration of 1 microM.
Cell Culture. All cells were maintained in an incubator at 37 degrees C and 5% CO2 with 95% humidity. The PDC lines were cultured according to standard operating procedures established by the NCI PDMR (https://pdmr.cancer.gov). Table 3 of the manuscript, lists the cell lines along with the number of the three cell types plated to form the mct-spheroids and media for tumor cell growth. After thawing, all PDC lines, except 997537-175-T-J1-PDC and 415267-285-R-J2-PDC, were cultured in Matrigel-coated flasks prepared with a working solution of 1X Ham's F-12 nutrient mix, without supplementation (Thermo Fisher Scientific, cat. 11765054), 100 U/mL penicillin-streptomycin (Thermo Fisher Scientific, cat. 15140122), and 2.5% Matrigel (Corning Inc., Corning, NY, cat. 354248) for the first three passages. The two PDC lines 997537-175-T-J1-PDC and 415267-285-R-J2-PDC were cultured on uncoated flasks. The 857933-349-R-J2-PDC line was cultured in 6C/Colon 1B media containing advanced DMEM/F-12 (Thermo Fisher Scientific, cat. 12634028), 10 mM HEPES (Thermo Fisher Scientific, cat. 15630080), 1X GlutaMAX supplement (Thermo Fisher Scientific, cat. 35050061), 0.1 mg/mL primocin (InvivoGen, San Diego, CA, cat. ant-pm-2), 10% defined fetal bovine serum, heat inactivated (HyClone Laboratories Inc., Logan, UT, cat. SH30070.03HI), 50% L-WRN conditioned media (ATCC, cat. CRL-3276), 1.25 mM N-Acetyl-L-cysteine (Sigma-Aldrich, cat. A9165), 10 mM nicotinamide (Sigma-Aldrich, cat. N0636), 1X B-27 supplement (Thermo Fisher Scientific, cat. 17504044), 1X N-2 supplement (Thermo Fisher Scientific, cat. […]

[1] abbreviates: curve of first compound, second compound 0.0316 µM.
Where [2] appears, read: curve of first compound, second compound 0.1 µM.
Setting [3] is: curve of first compound, second compound 0.316 µM.
Where [4] appears, read: curve of first compound, second compound 1 µM.
[5] abbreviates: curve of first compound, second compound 3.16 µM.
The mark [6] stands for this setting: curve of first compound, second compound 10 µM.
Where [7] appears, read: second compound 0.0316 µM, first compound 0.0316 µM.
The mark [8] stands for this setting: second compound 0.0316 µM, first compound 0.1 µM.
The mark [9] stands for this setting: second compound 0.0316 µM, first compound 0.316 µM.
The mark [10] stands for this setting: second compound 0.0316 µM, first compound 1 µM.
The mark [11] stands for this setting: second compound 0.0316 µM, first compound 3.16 µM.
[12] abbreviates: second compound 0.0316 µM, first compound 10 µM.
[13] abbreviates: second compound 0.1 µM, first compound 0.0316 µM.
The mark [14] stands for this setting: second compound 0.1 µM, first compound 0.1 µM.
[15] abbreviates: second compound 0.1 µM, first compound 0.316 µM.
Where [16] appears, read: second compound 0.1 µM, first compound 1 µM.
The mark [17] stands for this setting: second compound 0.1 µM, first compound 3.16 µM.
Where [18] appears, read: second compound 0.1 µM, first compound 10 µM.
Setting [19] is: second compound 0.316 µM, first compound 0.0316 µM.
Where [20] appears, read: second compound 0.316 µM, first compound 0.1 µM.
[21] abbreviates: second compound 0.316 µM, first compound 0.316 µM.
[22] abbreviates: second compound 0.316 µM, first compound 1 µM.
The mark [23] stands for this setting: second compound 0.316 µM, first compound 3.16 µM.
Setting [24] is: second compound 0.316 µM, first compound 10 µM.
Setting [25] is: second compound 1 µM, first compound 0.0316 µM.
Setting [26] is: second compound 1 µM, first compound 0.1 µM.
[27] abbreviates: second compound 1 µM, first compound 0.316 µM.
The mark [28] stands for this setting: second compound 1 µM, first compound 1 µM.
The mark [29] stands for this setting: second compound 1 µM, first compound 3.16 µM.
Setting [30] is: second compound 1 µM, first compound 10 µM.
The mark [31] stands for this setting: second compound 3.16 µM, first compound 0.0316 µM.
The mark [32] stands for this setting: second compound 3.16 µM, first compound 0.1 µM.
Where [33] appears, read: second compound 3.16 µM, first compound 0.316 µM.
[34] abbreviates: second compound 3.16 µM, first compound 1 µM.
[35] abbreviates: second compound 3.16 µM, first compound 3.16 µM.
The mark [36] stands for this setting: second compound 3.16 µM, first compound 10 µM.
[37] abbreviates: second compound 10 µM, first compound 0.0316 µM.
The mark [38] stands for this setting: second compound 10 µM, first compound 0.1 µM.
Setting [39] is: second compound 10 µM, first compound 0.316 µM.
The mark [40] stands for this setting: second compound 10 µM, first compound 1 µM.
Where [41] appears, read: second compound 10 µM, first compound 3.16 µM.
The mark [42] stands for this setting: second compound 10 µM, first compound 10 µM.
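Further: spheroids exposed to compounds for 7 days before readout.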
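Wherever viability, T/C is given: 100% = DMSO vehicle control viability.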

Turning to `CC(C)n1c(=O)n(C)c2cnc3cc(F)c(-c4ccc(OCCCN5CCCCC5)nc4)cc3c21` + Cc1cccc(N(C)C(=O)C2C(O)CCN2c2nc(C)cc(C(F)(F)F)c2C#N)c1, the 50% inhibitory concentration (IC50) is greater than 10 µM under setting [1]; greater than 10 µM under setting [2]; greater than 10 µM under setting [3]; greater than 10 µM under setting [4]; greater than 10 µM under setting [5]; greater than 10 µM under setting [6]. The viability, T/C stood at 98.9% under setting [7]; 97.1% under setting [8]; 99.3% under setting [9]; 90.9% under setting [10]; 98.3% under setting [11]; 83.9% under setting [12]. Besides, the viability, T/C is, setting by setting: under setting [13], 96.6%; under setting [14], 99.9%; under setting [15], 115%; under setting [16], 90.7%; under setting [17], 74%; under setting [18], 79%. Besides, the viability, T/C came to 83.8% under setting [19]; 101% under setting [20]; 102% under setting [21]; 106% under setting [22]; 109% under setting [23]; 80.4% under setting [24]. The viability, T/C reads like this: under setting [25], 92.1%; under setting [26], 99.5%; under setting [27], 116%; under setting [28], 90.8%; under setting [29], 99.1%; under setting [30], 81.2%. Moreover, the viability, T/C is, setting by setting: under setting [31], 85.9%; under setting [32], 98.3%; under setting [33], 90.2%; under setting [34], 101%; under setting [35], 109%; under setting [36], 61.3%. Also, the viability, T/C was 82% under setting [37]; 104% under setting [38]; 86.7% under setting [39]; 80.1% under setting [40]; 111% under setting [41]; 67.2% under setting [42].

`CCCS(=O)(=O)Nc1ccc(F)c(C(=O)c2c[nH]c3ncc(-c4ccc(Cl)cc4)cc23)c1F`: the viability, T/C (compound 0.0316 µM) was 110% and 93.5% and 111%; the viability, T/C (compound 0.1 µM) was 99.2% and 90.3% and 101%; the viability, T/C (compound 0.316 µM) is 108% and 94.4% and 86%; the viability, T/C (compound 3.16 µM) was 114% and 104% and 107%; the viability, T/C (compound 10 µM) was 97.2% and 94.1% and 109%. In addition, the IC50 (curve of compound) was greater than 10 µM.

As for `Cc1cccc(N(C)C(=O)C2C(O)CCN2c2nc(C)cc(C(F)(F)F)c2C#N)c1` (stereo unspecified), the viability, T/C was 101% [middle of 13 runs] (compound 0.0316 µM), 99.2% [middle of 13 runs] (compound 0.1 µM), 101% [middle of 13 runs] (compound 3.16 µM) and 100% [middle of 13 runs] (compound 10 µM). Also, the IC50 was greater than 10 µM (compound alone, run of 01/08/2024) and greater than 10 µM (compound alone, run of 01/19/2024).

As for `O=C(c1cc(Cc2n[nH]c(=O)c3ccccc23)ccc1F)N1CCN(C(=O)C2CC2)CC1` + Nc1ccc(C#CCN(C(=O)Cc2ncc(C(F)(F)F)cc2C(F)(F)F)c2ccc(F)cc2)nn1, the IC50 is, setting by setting: under setting [1], greater than 10 µM; under setting [2], greater than 10 µM; under setting [3], greater than 10 µM; under setting [4], greater than 10 µM; under setting [5], greater than 10 µM; under setting [6], greater than 10 µM. For the same compound, the viability, T/C runs as follows: under setting [7], 105%; under setting [8], 101%; under setting [9], 90.1%; under setting [10], 98.5%; under setting [11], 98.2%; under setting [12], 99.8%. Besides, the viability, T/C was 101% under setting [13]; 97.4% under setting [14]; 90.3% under setting [15]; 96.1% under setting [16]; 110% under setting [17]; 90% under setting [18]. Further, the viability, T/C was 106% under setting [19]; 104% under setting [20]; 93.8% under setting [21]; 97% under setting [22]; 101% under setting [23]; 97.2% under setting [24]. For the same compound, the viability, T/C under setting [25] is 104%; the viability, T/C under setting [26] was 96.1%; the viability, T/C under setting [27] was found to be 94.3%; the viability, T/C under setting [28] was 90.3%; the viability, T/C under setting [29] was found to be 105%; the viability, T/C under setting [30] amounted to 90.4%. The viability, T/C was 103% under setting [31]; 103% under setting [32]; 95.4% under setting [33]; 100% under setting [34]; 105% under setting [35]; 105% under setting [36]. Moreover, the viability, T/C is 95.5% under setting [37]; 93.6% under setting [38]; 104% under setting [39]; 96.7% under setting [40]; 97.1% under setting [41]; 102% under setting [42].
